Measurements: US20210308089A1, “METHODS OF TREATING AND/OR PREVENTING VIRAL INFECTIONS AND/OR DISEASES CAUSED BY VIRUSES IN A SUBJECT IN NEED THEREOF” (priority 2020, published 2021)
Read-outs that look alike come from different tables or passages of the source.

Tested on: patients of the REDUCE-IT and earlier EPA placebo-controlled trials
Format: in vivo, human
Conditions: for Placebo-Adjusted % Change / ARR / NNT / Risk Ratio (95% CI): R-I
[1] = Hematocrit shift: normal to high (Day 120)
[2] = Hematocrit shift: normal to high (Day 360)
[3] = Hematocrit shift: normal to high (Day 720)
[4] = Hematocrit shift: normal to high (Day 1080)
[5] = Hematocrit shift: normal to high (Day 1440)
[6] = Hematocrit shift: normal to high (Day 1800)
[7] = Hematocrit shift: normal to low (Day 120)
[8] = Hematocrit shift: normal to low (Day 360)
[9] = Hematocrit shift: normal to low (Day 720)
[10] = Hematocrit shift: normal to low (Day 1080)
[11] = Hematocrit shift: normal to low (Day 1440)
[12] = Hematocrit shift: normal to low (Day 1800)
[13] = Hemoglobin shift: normal to high (Day 120)
[14] = Hemoglobin shift: normal to high (Day 360)
[15] = Hemoglobin shift: normal to high (Day 720)
[16] = Hemoglobin shift: normal to high (Day 1080)
[17] = Hemoglobin shift: normal to high (Day 1440)
[18] = Hemoglobin shift: normal to high (Day 1800)
[19] = Hemoglobin shift: normal to low (Day 120)
[20] = Hemoglobin shift: normal to low (Day 360)
[21] = Hemoglobin shift: normal to low (Day 720)
[22] = Hemoglobin shift: normal to low (Day 1080)
[23] = Hemoglobin shift: normal to low (Day 1440)
[24] = Hemoglobin shift: normal to low (Day 1800)

CC/C=C\C/C=C\C/C=C\C/C=C\C/C=C\CCCC(=O)OCC [icosapent ethyl, eicosapentaenoic acid ethyl ester]
Placebo-Adjusted % Change (Hematocrit (Day 360)): +.78%
Placebo-Adjusted % Change (Hematocrit (Day 720)): +1.28%
Placebo-Adjusted % Change (Hematocrit (Day 1080)): +1.59%
Placebo-Adjusted % Change (Hematocrit (Day 1440)): +1.86%
ARR [1]: 0.4%
NNT [1]: −234
Risk Ratio (95% CI) [1]: 1.507 (0.952 to 2.386) −2
ARR [2]: 0.3%
NNT [2]: −364
Risk Ratio (95% CI) [2]: 1.273 (0.811 to 1.999) −2
ARR [3]: 0.2%
NNT [3]: −566
Risk Ratio (95% CI) [3]: 1.181 (0.724 to 1.927) −1
ARR [4]: 0.4%
NNT [4]: −282
Risk Ratio (95% CI) [4]: 1.433 (0.826 to 2.487) −2
ARR [5]: 0.7%
NNT [5]: −138
Risk Ratio (95% CI) [5]: 2.208 (1.155 to 4.221) −3
ARR [6]: 0.3%
NNT [6]: −354
Risk Ratio (95% CI) [6]: 1.420 (0.582 to 3.462) −2
ARR [7]: −0.4%
NNT [7]: 228
Risk Ratio (95% CI) [7]: 0.828 (0.612 to 1.120) 1
ARR [8]: −0.6%
NNT [8]: 158
Risk Ratio (95% CI) [8]: 0.784 (0.583 to 1.054) 2
ARR [9]: −1.1%
NNT [9]: 90
Risk Ratio (95% CI) [9]: 0.747 (0.579 to 0.964) 2
ARR [10]: −2.2%
NNT [10]: 45
Risk Ratio (95% CI) [10]: 0.607 (0.469 to 0.785) 2
ARR [11]: −2.1%
NNT [11]: 47
Risk Ratio (95% CI) [11]: 0.650 (0.500 to 0.845) 2
ARR [12]: −0.9%
NNT [12]: 111
Risk Ratio (95% CI) [12]: 0.859 (0.627 to 1.179) 1
Placebo-Adjusted % Change (Hemoglobin (Day 120)): +.53%
Placebo-Adjusted % Change (Hemoglobin (Day 360)): +1%
Placebo-Adjusted % Change (Hemoglobin (Day 720)): +1.51%
Placebo-Adjusted % Change (Hemoglobin (Day 1080)): +2.09%
Placebo-Adjusted % Change (Hemoglobin (Day 1440)): +2.36%
ARR [13]: 0.3%
NNT [13]: −313
Risk Ratio (95% CI) [13]: 1.668 (0.915 to 3.042) −2
ARR [14]: −0.1%
NNT [14]: 961
Risk Ratio (95% CI) [14]: 0.908 (0.571 to 1.442) 1
ARR [15]: 0.2%
NNT [15]: −491
Risk Ratio (95% CI) [15]: 1.144 (0.760 to 1.721) −1
ARR [16]: 1.0%
NNT [16]: −103
Risk Ratio (95% CI) [16]: 2.241 (1.330 to 3.778) −3
ARR [17]: 0.7%
NNT [17]: −145
Risk Ratio (95% CI) [17]: 1.829 (1.036 to 3.229) −3
ARR [18]: 0.4%
NNT [18]: −240
Risk Ratio (95% CI) [18]: 1.383 (0.686 to 2.788) −2
ARR [19]: 0.0%
NNT [19]: −2370
Risk Ratio (95% CI) [19]: 1.013 (0.787 to 1.303) −1
ARR [20]: −0.7%
NNT [20]: 134
Risk Ratio (95% CI) [20]: 0.828 (0.652 to 1.051) 1
ARR [21]: −1.1%
NNT [21]: 93
Risk Ratio (95% CI) [21]: 0.815 (0.657 to 1.011) 1
ARR [22]: −2.3%
NNT [22]: 44
Risk Ratio (95% CI) [22]: 0.703 (0.570 to 0.868) 2
ARR [23]: −2.7%
NNT [23]: 37
Risk Ratio (95% CI) [23]: 0.685 (0.553 to 0.849) 2
ARR [24]: −1.5%
NNT [24]: 67
Risk Ratio (95% CI) [24]: 0.827 (0.630 to 1.085) 1
ARR (Lymphocytes: PCS High >45%): 2.7%
NNT (Lymphocytes: PCS High >45%): −38
Risk Ratio (95% CI) (Lymphocytes: PCS High >45%): 1.543 (1.296 to 1.838) −2
ARR (Lymphocytes: PCS Low <30%): −6.3%
NNT (Lymphocytes: PCS Low <30%): 16
Risk Ratio (95% CI) (Lymphocytes: PCS Low <30%): 0.924 (0.904 to 0.945) 1
Placebo-Adjusted % Change (Neutrophils (Day 120)): +1.11%
Placebo-Adjusted % Change (Neutrophils (Day 360)): −3%
Placebo-Adjusted % Change (Neutrophils (Day 720)): −4.7%
Placebo-Adjusted % Change (Neutrophils (Day 1080)): −4.52%
Placebo-Adjusted % Change (Neutrophils (Day 1440)): −3.06%
Placebo-Adjusted % Change (Neutrophils/Leukocytes (Ratio) (Day 120)): −2.06%
Placebo-Adjusted % Change (Neutrophils/Leukocytes (Ratio) (Day 360)): −3.87%
Placebo-Adjusted % Change (Neutrophils/Leukocytes (Ratio) (Day 720)): −4.61%
Placebo-Adjusted % Change (Neutrophils/Leukocytes (Ratio) (Day 1080)): −4.21%
Placebo-Adjusted % Change (Neutrophils/Leukocytes (Ratio) (Day 1440)): −4.1%
AR: ALP >2x ULN (AE table) (human, in vivo): 0.6%
AR: ALP > ULN (AE table) (human, in vivo): 9.8%
AR: Blood uric acid increased (AE table) (human, in vivo): 1.0%
AR: Gout (AE table) (human, in vivo): 3.6%
AR: Hepatomegaly (AE table) (human, in vivo): 0.4%
AR: Hyperuricemia (AE table) (human, in vivo): 0.6%
AR: Spleen disorders (AE table) (human, in vivo): 0.3%
AR: Splenomegaly (AE table) (human, in vivo): 0.2%
ARR: ALP >2x ULN (AE table) (human, in vivo): −0.3%
ARR: ALP > ULN (AE table) (human, in vivo): −4.5%
ARR: Blood uric acid increased (AE table) (human, in vivo): 0.1%
ARR: Gout (AE table) (human, in vivo): 1.1%
ARR: Hepatomegaly (AE table) (human, in vivo): −0.4%
ARR: Hyperuricemia (AE table) (human, in vivo): 0.3%
ARR: Spleen disorders (AE table) (human, in vivo): −0.3%
ARR: Splenomegaly (AE table) (human, in vivo): −0.1%
Lab Reported Events: % of subjects (human, in vivo): (79.9) %
Lab Reported Events: number of subjects (human, in vivo): 3269
NNT: ALP >2x ULN (AE table) (human, in vivo): 341
NNT: ALP > ULN (AE table) (human, in vivo): 22
NNT: Blood uric acid increased (AE table) (human, in vivo): −680
NNT: Gout (AE table) (human, in vivo): −93
NNT: Hepatomegaly (AE table) (human, in vivo): 256
NNT: Hyperuricemia (AE table) (human, in vivo): −292
NNT: Spleen disorders (AE table) (human, in vivo): 372
NNT: Splenomegaly (AE table) (human, in vivo): 682
Platelet Count: PCS High >500 × 10^3/uL (human, in vivo): 16 (0.4%) n(%)
Platelet Count: PCS High >500 × 10^3/uL: % of subjects (human, in vivo): (0.4) %
Platelet Count: PCS High >500 × 10^3/uL: number of subjects (human, in vivo): 16
Platelet Count: PCS Low <100 × 10^3/uL (human, in vivo): 19 (0.5%) n(%)
Platelet Count: PCS Low <100 × 10^3/uL: % of subjects (human, in vivo): (0.5) %
Platelet Count: PCS Low <100 × 10^3/uL: number of subjects (human, in vivo): 19
Risk Ratio (95% CI): ALP >2x ULN (AE table) (human, in vivo): 0.600 (0.335 to 1.075) 2
Risk Ratio (95% CI): ALP > ULN (AE table) (human, in vivo): 0.624 (0.545 to 0.714) 2
Risk Ratio (95% CI): Blood uric acid increased (AE table) (human, in vivo): 1.154 (0.753 to 1.768) −1
Risk Ratio (95% CI): Gout (AE table) (human, in vivo): 1.347 (1.075 to 1.687) −2
Risk Ratio (95% CI): Hepatomegaly (AE table) (human, in vivo): 0.304 (0.131 to 0.709) 4
Risk Ratio (95% CI): Hyperuricemia (AE table) (human, in vivo): 1.737 (0.990 to 3.050) −3
Risk Ratio (95% CI): Spleen disorders (AE table) (human, in vivo): 0.353 (0.139 to 0.894) 4
Risk Ratio (95% CI): Splenomegaly (AE table) (human, in vivo): 0.400 (0.126 to 1.275) 3
WBC Differential (Lymphocytes): PCS High >45%: % of subjects (human, in vivo): (7.4) %
WBC Differential (Lymphocytes): PCS High >45%: number of subjects (human, in vivo): 301
WBC Differential (Lymphocytes): PCS Low <30%: % of subjects (human, in vivo): (75.0) %
WBC Differential (Lymphocytes): PCS Low <30%: number of subjects (human, in vivo): 3067
WBC Differential (Monocytes): PCS High >6% (human, in vivo): 3101 (78.0%) n(%)
